# Laboratory results reported in ChEMBL document CHEMBL1154198, “Chemical genetics of Plasmodium falciparum” (Nature, 2010).
# How the values were obtained:
# Plasmodium falciparum [1] = experiment: ST_JUDE: Plasmodium falciparum 3D7 EC50 (uM) as measured by SYBR green dye; assay type: functional, organism-based
# Plasmodium falciparum [2] = experiment: ST_JUDE: Plasmodium falciparum K1 EC50 (uM) as measured by SYBR green dye; assay type: functional, organism-based
EC50 (Plasmodium falciparum [1]),EC50 (Plasmodium falciparum [2]),SMILES
> 15000 nM,> 15 µM,Cc1cccc(N2COc3ccc(C(C)(C)C)cc3C2)c1
4390 nM,9.17 µM,CCC1CCCCN1CCCNC(=S)Nc1ccc2nc(N3CCN(CC)CC3)cc(C)c2c1 (stereo not drawn)
> 15000 nM,4.17 µM,Cc1ccc2nc(-c3ccc(C)c(NC(=O)C(Cl)(Cl)Cl)c3)oc2c1
> 15000 nM,> 15 µM,Cc1ccc(Nc2nc(N)c3ccccc3n2)cc1Cl
> 15000 nM,> 15 µM,COCCCn1c(=N)c(C(=O)NCc2cccnc2)cc2c(=O)n3cccc(C)c3nc21
> 15000 nM,> 15 µM,O=C(Nc1ccc([N+](=O)[O-])cc1)Nc1cc(Cl)cc(Cl)c1
3750 nM,4.06 µM,CCn1cc(CCCC(=O)NCc2ccc(OC)cc2)c2ccccc21
1410 nM,0.602 µM,Cc1ccc2c(c1)c(-c1ccccc1)c(-c1ccccc1)n2CC(O)CNCCc1ccccc1 (stereo not drawn)
> 15000 nM,> 15 µM,Cc1ccc(Nc2cc(C)nc(N3CCN(C(=O)Nc4cccc(Cl)c4)CC3)n2)cc1
3390 nM,3.79 µM,CC(=O)NC(c1ccccc1Cl)c1ccc2cccnc2c1O (stereo not drawn)
6540 nM,> 15 µM,COc1ccc(S(=O)(=O)n2nc(-c3ccc(Cl)cc3)cc2N)cc1OC
1160 nM,1.21 µM,CCCOc1ccc(-c2nonc2NC(=O)c2cccc(OC)c2)cc1OCCC
702 nM,0.891 µM,Cc1c(C=O)c2ccccc2n1CC(=O)Nc1ccc(Br)c(Cl)c1
537 nM,4.36 µM,Cc1ccc(C)c(NC(=O)c2c(-c3c(Cl)cccc3Cl)noc2C)c1
1460 nM,> 15 µM,O=C(c1ccc(Cl)cc1Cl)N1CCCC(C(F)(F)F)C1 (stereo not drawn)
> 15000 nM,> 15 µM,CCCCc1ccc(NC(=S)NN2CCN(C)CC2)cc1
> 15000 nM,0.286 µM,COc1ccc(NC2=C(N3CCOCC3)C(=O)c3ccccc3C2=O)cc1

# Further lines, the compound ahead of its results:
SMILES,EC50 (Plasmodium falciparum [1]),EC50 (Plasmodium falciparum [2])
COc1ccc(NC(=O)COc2c(C)cc(Br)cc2C)c(OC)c1,> 15000 nM,5.44 µM
COc1ccc(C2C3=C(O)CC(c4ccccc4)CC3=NC(C)=C2C(=O)OCC(C)C)cc1OC (stereo not drawn),> 15000 nM,3.92 µM
Cc1ccc(C)c(Oc2c(C(F)(F)F)oc3c(CN4CCN(Cc5ccccc5)CC4)c(O)ccc3c2=O)c1,612 nM,0.274 µM
C=CCN(CC=C)CCN1CCN(C(=O)Nc2cc(C(F)(F)F)cc(C(F)(F)F)c2)CC1,711 nM,0.535 µM
CCCN(CCC)CCCNC(=O)c1cc2c(-c3cccc(OC)c3)nn(C)c2s1,2150 nM,7.45 µM
CC1CCN(Cc2cc(COCc3ccccc3)c3cccnc3c2O)CC1,2870 nM,3.19 µM
CC(C)(C)c1ccc(C(=O)Nc2nc3ccccc3s2)cc1,> 15000 nM,> 15 µM
COc1ccccc1-c1nnc(NC(=O)c2cccc(SC)c2)o1,> 15000 nM,> 15 µM
COc1ccccc1/N=C1\C=C(NS(=O)(=O)c2ccc(Cl)cc2)c2ccccc2C1=O,268 nM,0.267 µM
O=C(Nc1cccc(Cl)c1)C1c2ccccc2C(=O)N(C2CCCC2)C1c1cccs1 (stereo not drawn),297 nM,0.326 µM
Cc1ccc(O)c(NC(=O)c2noc3c2CC(C(C)(C)C)CC3)c1 (stereo not drawn),> 15000 nM,0.483 µM
CCOC(=O)c1c(NC(=O)c2ccc(Cl)cc2Cl)sc(C)c1C,> 15000 nM,> 15 µM
COc1cccc(OC)c1CN1CCC(C(Cc2ccccc2F)N(C)C(=O)c2cccs2)CC1 (stereo not drawn),7280 nM,4.22 µM
CC(C)(C)c1ccc2c(c1)CN(Cc1ccc(Cl)cc1)CO2,255 nM,0.0389 µM
CCN(CC)CCn1c(=N)n(CC(O)COc2ccc(Cl)cc2Cl)c2ccccc21 (stereo not drawn),954 nM,2.88 µM
CC(C)Cn1c2c(c(=N)c3c1CCC3)CCCC2,2250 nM,3.78 µM
CCCc1cc(O)nc(-n2nc(C)cc2NC(=O)COc2ccc(OC)cc2)n1,> 15000 nM,> 15 µM
Cc1n(C)c2ccccc2[n+]1CC(=O)c1ccc([N+](=O)[O-])cc1,1610 nM,2.09 µM
CCO/C(O)=C1\C(C)=NC2=C(C(=O)CC(c3ccc(Cl)cc3)C2)C1c1ccc(O)c(OCC)c1 (stereo not drawn),881 nM,1.47 µM
CCN(CC)S(=O)(=O)c1ccc(C(=O)NNc2nc3c(C)cccc3s2)cc1,> 15000 nM,> 15 µM
O=C(CC1N=C2c3ccccc3N=C(SCc3ccc(F)cc3)N2C1=O)NCc1ccco1 (stereo not drawn),8190 nM,5.69 µM
COc1cccc(C(=O)NCc2nnc(S)n2-c2ccc(Cl)c(Cl)c2)c1,92.8 nM,0.0463 µM
CC(C)Nc1c2ccccc2nc2ccccc12,2540 nM,4.07 µM
CCOc1ccc(Nc2nc(N)c3ccccc3n2)cc1,3230 nM,> 15 µM
O=C(CSc1nnc(-c2ccncc2)o1)Nc1ccccc1C(F)(F)F,> 15000 nM,> 15 µM
CCCc1cc(O)nc(Nc2ccc(Cl)c(C(F)(F)F)c2)n1,3090 nM,2.84 µM
CC(/C=N/NC(=O)c1cc(-c2ccc(OC(C)C)cc2)n[nH]1)=C\c1ccccc1,> 15000 nM,> 15 µM
